Results on 1 molecule are retold here after BindingDB's records for doi:10.1016/j.bmcl.2013.01.017 (Vanderbilt University Medical Center, 2013).

This assay has as its target T1, Muscarinic acetylcholine receptor M1 (Homo sapiens, UniProt P11229).
T1 sequence (P11229 whole entry): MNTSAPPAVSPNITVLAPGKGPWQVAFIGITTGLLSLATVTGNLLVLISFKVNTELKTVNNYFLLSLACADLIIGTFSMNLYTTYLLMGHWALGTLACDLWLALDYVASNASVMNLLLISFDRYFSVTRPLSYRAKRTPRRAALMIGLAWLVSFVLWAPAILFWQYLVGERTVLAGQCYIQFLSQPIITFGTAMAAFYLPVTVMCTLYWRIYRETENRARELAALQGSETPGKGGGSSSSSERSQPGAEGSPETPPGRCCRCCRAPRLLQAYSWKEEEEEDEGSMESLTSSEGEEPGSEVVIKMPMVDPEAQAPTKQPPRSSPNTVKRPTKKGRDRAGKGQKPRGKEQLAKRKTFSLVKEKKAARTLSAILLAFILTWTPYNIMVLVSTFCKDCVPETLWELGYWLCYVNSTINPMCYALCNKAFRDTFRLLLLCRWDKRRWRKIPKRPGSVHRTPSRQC
The experiment in a line: Positive allosteric modulation of human muscarinic M1 receptor.

A value given as a limit tells only on which side of the number the result lay.

By EC50 is commonly meant the concentration that produces a half-maximal response. High values mean lower potency in that assay, low ones higher potency in that assay. `Cn1cc(-c2ccc(CN3C(=O)C4(CCN(C5CCCC5)C4)c4ccccc43)c(F)c2)cn1` (stereo unspecified) yielded an EC50 greater than 10 µM.
